Measurements from patent publication US5069812A, “Bleach/builder precursors” (priority 1990, dated 1991).

What was measured:
[1] = Peracid generation from precursors (perhydrolysis yield); conditions: 40° C., [BPD] = 6.24 × 10^-4 M, [H2O2] = 6.24 × 10^-3 M
Method: The precursors described herein can be used to generate peroxycarbonic acid bleaches in basic aqueous solution containing a source of hydrogen peroxide and, optimally, may contain typical detergent ingredients. […] The hydrogen peroxide source is added just prior to addition of the precursor. Ten milliliter aliquots of solution are withdrawn from the beaker at regular intervals and are added to a 250 ml titration flask containing crushed ice (150 g), glacial acetic acid (30 ml) and 4% aqueous potassium iodide (5 ml). After development for ten minutes with occasional agitation, the iodine produced is titrated with standard sodium thiosulfate solution. Time zero is taken as the point of introduction of precursor into the peroxyide solution. Precursor perhydrolysis experiments are generally carried out for a maximum of 15 minutes.
Since hydrogen peroxide itself contributes to the total active oxygen in these titrations, controls or "blanks" are obtained by carrying out a perhydrolysis experiment in the absence of precursor. These hydrogen peroxide blanks are subtracted from the total active oxygen titration in the presence of bleach precursor to give the level of active oxygen produced by precursor perhydrolysis.
Peroxycarbonic acid generation is determined at pH 8, 9, and 10. Borax buffer is used for experiments at pH 9 and 10 while phosphate buffer is employed for experiments carried out at pH 8. Adjustment of the buffer systems at 40° C. to the exact pH is carried out with 1M hydrochloric acid or sodium hydroxide solution.

[2] = Stain bleaching on tea-stained cotton (Terg-O-Tometer wash, reflectance change); conditions: 40° C., 15 minutes, BC1 cloth, pH = 9.0-9.5, [precursor] = 6.2 × 10^-4 M, [H2O2] = 6.25 × 10^-3 M; corrected for H2O2 and detergent alone
Method: Typically, cotton test pieces (4 in.×4 in.) stained with the tea are washed in a Terg-O-Tometer in 1 l. of aqueous solution containing a given level of bleach precursor, hydrogen peroxide, buffer, and surfactant (generally sodium dodecylbenzenesulfonate).
Washes are carried out at 40° C. for 15 minutes. Stain bleaching is measured reflectrometrically using a Colorgard System/05 Reflectometer. Bleaching is indicated by an increase in reflectance, reported as ΔR. In general a ΔR of one unit is perceivable in a paired comparison while ΔR of two units is perceivable monadically. In reporting the reflectance change, the change in reflectance caused by general detergency and bleaching by the excess hydrogen peroxide has been accounted for. Thus ΔR can actually be expressed as: ΔR=(the value of the Reflectance of stained fabric washed with precursor, H2 O2 and detergent minus the value of the Reflectance of stained fabric before washing) minus (the value of the Reflectance of stained fabric washed with H2 O2 and detergent alone minus the value of the Reflectance of stained fabric before washing).
The formulation of the detergent base used for the bleaching test is as follows: […]

[3] = Determination of calcium binding (Ca ion selective electrode titration); assay type: physicochemical; conditions: pH 10, 0.05 g/l solution, ionic strength 0.02-0.03M (NaCl), titrated with 0.02M CaCl2
Method: Calcium binding data was obtained at a pH of 10 by titrating 100 ml of 0.05 g/l precursor solution at an ionic strength of 0.02-0.03M (NaCl) with a 0.02M CaCl2 solution. A Radiometer calcium ion selective electrode was used to measure free Ca^++ ion concentration of the solutions. Data was corrected for dilution during each titration.

[4] = Biodegradability (statement, no test described); conditions: chelidamic acid moiety

For `O=C(Oc1cc(C(=O)O)nc(C(=O)O)c1)c1ccccc1.[Na].[Na]` [BPD, Disodium, 4-Benzoyloxy-2,6-Pyridinedicarboxylic Acid], the “Perhydrolysis yields from BPD (peroxycarbonic acid yield as a percent of theoretical), 1 minute” value ([1]; pH 10, 1 minute) was 91.35%, the “Perhydrolysis yields from BPD (peroxycarbonic acid yield as a percent of theoretical), 8 minutes” value ([1]; pH 10, 8 minutes) was 17.63% and the “Perhydrolysis yields from BPD (peroxycarbonic acid yield as a percent of theoretical), 15 minutes” value ([1]; pH 10, 15 minutes) was 0%. The “Bleaching Performance Δ R” value [2] was greater than 6.0.
In the case of `O=C(Oc1cc(C(=O)O)nc(C(=O)O)c1)c1cccc(CCl)c1` [CBPD, Disodium, 4-(3-Chloromethyl)benzoyloxy-2,6-Pyridinedicarboxylic Acid], the “Bleaching Performance Δ R” value [2] is reported as greater than 6.0.
With `C[N+](C)(C)CCOC(=O)Oc1cc(C(=O)O)nc(C(=O)O)c1` [CCPD, Disodium, 4-Choline Carbonate-2,6-Pyridinedicarboxylic Acid] the “Bleaching Performance Δ R” value [2] was greater than 15.0.
With `O=C(O)c1cc(O)cc(C(=O)O)n1` [Chelidamic Acid, 1,4-Dihydro-4-oxo-2,6-pyridine dicarboxylic acid] the “Binding Constants Log KCa” value [3] was 5.70 and the biodegradability [4] was “biodegradable”.
In the case of `O=P(O)(O)OP(=O)(O)OP(=O)(O)O` [Sodium Tripolyphosphate], the “Binding Constants Log KCa” value [3] is reported as 5.85.
